Patent US20230414644A1, “ORAL CANINE FEED AND METHODS FOR CONTROLLING FLEA INFESTATIONS IN A CANINE” (In the Bowl Animal Health, Inc., priority 2021, published 2023)

Tested on: Ctenocephalides felis
Assay: Efficacy of spinosyn administered per os (liquid formulation, daily) to dogs against experimental flea infestation, comb counts of live adult fleas
Type: in vivo
Conditions: for percent reduction in live adult flea counts: day 14 comb count; for Efficacy (percent reduction in live adult flea counts): day 37, after the five day wash out period
Description: Efficacy of Spinosyn Administered Per Os, i.e. by Mouth, to Dogs for the Treatment and Control of Ctenocephalides felis.
Methods: A pool of 40 dogs are to be preliminarily infested with ˜100 unfed adult C. felis in order to produce a pool of dogs that can suitably sustain a reliable infestation rate of approximately 50% of live fleas over a 48-hour period. The dogs with the highest live flea counts are to be randomly allocated to 4 treatment groups (6 dogs per group) based on their pre-treatment flea counts from experimental infestations. The first treatment group is to be the control group and groups 2-4 are to be the test groups.
The dogs are to be housed individually during the study period and are to be fed a commercial dry dog food ration with ad libitum access to water.
Dogs in the control group are not to receive a spinosyn or any other flea control treatment. Each dog in test groups 2-4 is to be offered its daily ration (dry food) and the individual doses of liquid formulation are to be administered after the individual dog has eaten at least 25% of its total daily ration. After receiving the dose of a spinosyn the dogs are to be allowed to continue eating. This mimics incorporating the spinosyn in feed. Each dog in test groups 2-4 and the control group is to be experimentally infested with 100 unfed adult fleas on test days −1, 5, 12, 19, 28 and 35. Comb counts for live adult fleas are to be conducted on days 2, 7, 14, 21, 30 and 37. The final experimental infestation is to occur five days after the last daily dose of spinosyn.

spinosad
percent reduction in live adult flea counts (0.25 mg/kg daily oral (Group 2)): 100% | percent reduction in live adult flea counts (0.50 mg/kg daily oral (Group 3)): 100% | Efficacy (percent reduction in live adult flea counts) (0.50 mg/kg daily oral days 0-29 (Group 3)): over 98% | percent reduction in live adult flea counts (1.0 mg/kg daily oral (Group 4)): 100% | Efficacy (percent reduction in live adult flea counts) (1.0 mg/kg daily oral days 0-29 (Group 4)): over 98%
